# Source: patent US8097585B2, “Methods of treating inflammation by administration of heme oxygenase-1 and products of heme degradation” (priority 2002, dated 2012)
# Where a name gives a salt, the structure may show the parent alone.
# What was measured:
# IL-6 = test: Serum IL-6 (ELISA), SITx with preserved intestine; assay type: in vivo, LEW rats
# Experimental: Detection of Serum Mediators. Serum samples from the recipients transplanted with preserved intestine were taken at 3 and 12 hours after reperfusion and stored at […] until evaluation. Serum IL-6 was determined using a rat enzyme-linked immunoassay (ELISA) kits as described by the manufacturer (R & D Systems, Inc., Cambridge, Mass.). To monitor the production of nitric oxide, the stable end products of NO metabolism, serum nitrite/nitrate levels, were measured 12 hours after engraftment using a commercially available test kit (Cayman, Ann Arbor, Mich.). In this assay system, nitrate is reduced to nitrite using nitrate reductase, and the nitrite concentration of the sample is subsequently measured using the Griess reaction.
# TNF-alpha = test: Endotoxic shock (LPS) model, serum TNF-alpha; assay type: in vivo, Sprague-Dawley rats; conditions: biliverdin i.p. […] 17 h and 1 h prior to and 8 h after LPS 3 mg/kg i.v.
# Experimental: Treatment Protocol. Endotoxin (lipopolysaccharide/LPS; Sigma; E. coli serotype 0128:B7; 3 mg/kg, i.v.) was administered to male Sprague-Dawley, resulting in an acute non-lethal inflammation. In rats, a sublethal dose of LPS results in a moderate lung inflammation characterized by neutrophil accumulation and protein accumulation in the airspace, both markers of lung inflammation. The pro-inflammatory cytokine TNF-alpha increases very rapidly in the serum, peaking by 60-90 minutes. This is followed by increases in IL-10, a prototypical anti-inflammatory cytokine that peaks 8-12 hr later.
# Administration of Biliverdin. Biliverdin (Frontier Scientific: prepared in PBS following solubilization in NaOH) was administered i.p. at […] 17 hours prior to, one hour prior to, and eight hours after LPS administration.
# Bronchoalveolar Lavage. A bronchoalveolar lavage (BAL) was performed 24 hours after LPS administration. Serum cytokines were measured using commercially available ELISA kits (R&D Systems Inc.) per the manufacturer's instructions. Total protein was determined via a standard Bradford assay based on a standard curve. […] Total cell count was determined as well as differential analysis of cell type and morphology via Diff-Quik® Fixative (American Scientific Products) staining of a sample of the lavagate.
# COX-2 = test: Real time RT-PCR of graft muscularis after SITx, COX-2; assay type: in vivo, LEW rats; conditions: BV treated rats
# Experimental: Small Intestinal Transplantation. Orthotopic small intestinal transplantation (SITx) was performed in syngeneic Lewis rats. SITx with caval drainage was performed using a previously described procedure (Murase et al., in Handbook of Animal Models in Transplantation Research, Cramer et al., Eds. CRC Press, Boca Raton, Fla., pp. 203-213 (1994)). […] The graft was perfused via the aortic segment with 5 ml chilled Ringer's lactate solution, and the intestinal lumen was irrigated with 20 ml of cold saline solution containing 0.5% neomycin-sulfate (Sigma, St. Louis, Mo.). […]
# SYBR green real time RT-PCR. The effects of administration of biliverdin on transplant-induced pro-inflammatory and anti-inflammatory gene expression were assessed in muscularis extracts by RT-PCR Biliverdin ([…], i.p.) was administered to both the donor and recipient three hours preoperatively. […] Equal aliquots (5 μg) of total RNA from each sample were quantified by spectrophotometry (wavelength […]) and aliquoted at a concentration of 40 ng/μl. Peak mRNA expression was quantified in duplicate by SYBR Green two-step, real-time RT-PCR. […] Real-time PCR data were plotted as the ΔRn fluorescence signal versus the cycle number. […] Quantification of mRNA expression was normalized to GAPDH and calculated relative to control using the comparative CT method (Schmittgen et al., J. Biochem. Biophys. Methods 46(1-2):69-8, 2000). […]
# IL-2 = IL-2 assay (ELISA of culture supernatant); assay type: cell-based, mouse; conditions: anti-CD3 mAb stimulation, biliverdin 50 or 100 μM
# Experimental: IL-2 assay. B6AF1 leukocytes (2.5×10^5 cells/well) were stimulated by anti-CD3 mAb (1 μg/ml), and cultured in 96 well round bottom plates with or without biliverdin (50 or 100 μM). Forty-eight hours later, culture supernatant (100 μl) was collected and stored at −80° C. until use. All cultures were performed in triplicates. IL-2 levels in the supernatants were measured by enzyme-linked immunosorbent assays (ELISA) using an IL-2 assay kit (Quantikine® M, R&D Systems, Inc), following kit instructions. Measurements of each supernatant sample for IL-2 were performed in duplicate. The experiment was repeated 4 times.
smiles,measurement,setting,value
"C=CC1=C(C)/C(=C/C2=NC(=C\c3[nH]c(/C=C4\NC(=O)C(C)=C4C=C)c(C)c3CCC(=O)O)/C(CCC(=O)O)=C2C)NC1=O [biliverdin, biliverdin dihydrochloride]",serum IL-6 protein concentration,"IL-6; 3 hours after engraftment, untreated transplant 5131.4±3169.1",1652 ± 306.9 pg/mL
same,serum IL-6 concentrations,IL-6; BV treated controls (no transplant),low
same,levels of LPS-induced TNF-alpha,TNF-alpha,reduced
same,reduction of mean relative COX-2 mRNA expression,COX-2,approximately 50%
same,IL-2 production by splenocytes,IL-2,significantly suppressed in a dose-dependent manner
